These results are taken from paper PMC8605023 (Nature Communications, 2021).

For one assay, the target named is T1, NTF2 domain of G3BP2 (Homo sapiens, UniProt Q9UN86).
T1 construct: made in house; host or cells: E. coli BL21-Gold(DE3)
T1 sequence (Q9UN86 11-133 limits assumed): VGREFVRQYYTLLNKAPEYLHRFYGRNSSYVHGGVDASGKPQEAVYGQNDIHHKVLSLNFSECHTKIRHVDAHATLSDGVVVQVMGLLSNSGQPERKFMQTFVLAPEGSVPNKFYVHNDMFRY
Kind of assay: biochemical. In kind it is binding.

The target of the next assay is T2, NTF2 domain of G3BP1 (Homo sapiens, UniProt Q13283).
T2 construct: made in house; host or cells: E. coli BL21-Gold(DE3)
T2 sequence (Q13283 11-133 limits assumed): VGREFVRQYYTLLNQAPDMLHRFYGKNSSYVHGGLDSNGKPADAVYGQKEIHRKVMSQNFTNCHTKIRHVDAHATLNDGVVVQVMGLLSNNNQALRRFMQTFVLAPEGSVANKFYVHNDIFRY
Briefly: biochemical. In kind it is binding.

Peptide text beside a SMILES is read from it.

On to `CC[C@H](C)[C@H](NC(=O)[C@H](Cc1ccccc1)NC(=O)[C@H](CC(N)=O)NC(=O)[C@H](Cc1ccc(O)cc1)NC(=O)[C@@H]1CCCN1C(=O)CNC(=O)[C@H](CCC(N)=O)NC(=O)[C@H](CCSC)NC(=O)[C@H](CCC(N)=O)NC(=O)[C@H](C)NC(C)=O)C(=O)N[C@@H](CCC(N)=O)C(=O)N[C@@H](CC(=O)O)C(=O)N[C@@H](CO)C(=O)N[C@@H](CCSC)C(=O)N[C@@H](CC(C)C)C(=O)N[C@@H](CC(=O)O)C(N)=O` [CAPRIN1 364-379 Human] (Ac-AQMQGPYNFIQDSMLD-NH2), for which, at NTF2 domain of G3BP2, the Kd worked out at 174 µM. Moreover, 46 µM corresponded to half-maximal inhibition on NTF2 domain of G3BP1 (IC50).

Compound `CC(=O)N[C@@H](CCC(=O)O)C(=O)N[C@@H](CO)C(=O)N[C@@H](CC(C)C)C(=O)N1CCC[C@H]1C(=O)N[C@@H](Cc1ccccc1)C(=O)N[C@@H](CO)C(=O)N[C@@H](Cc1ccccc1)C(=O)NCC(=O)N[C@H](C(=O)N[C@@H](CC(C)C)C(=O)N[C@@H](CO)C(=O)N[C@@H](CO)C(=O)N[C@@H](Cc1c[nH]c2ccccc12)C(=O)N[C@@H](CCC(=O)O)C(=O)N[C@@H](CC(C)C)C(=O)N[C@@H](CCC(=O)O)C(=O)O)[C@@H](C)O` [DDIT3 4-19 Human] (Ac-ESLPFSFGTLSSWELE-OH) gave a Kd on NTF2 domain of G3BP2 of 14 µM. For the same compound, on NTF2 domain of G3BP1, the IC50 was found to be 44 µM and the Ki came out at 14 µM.

For `CC(=O)N[C@@H](C)C(=O)N1CCC[C@H]1C(=O)N[C@@H](CCCNC(=N)N)C(=O)N[C@@H](C)C(=O)N[C@H](C(=O)N[C@H](C(=O)N[C@@H](Cc1ccccc1)C(=O)NCC(=O)N[C@@H](CC(=O)O)C(=O)N[C@@H](CC(N)=O)C(=O)N[C@@H](CC(N)=O)C(=O)N[C@@H](CC(=O)O)C(=O)N[C@@H](CC(N)=O)C(=O)N[C@@H](CC(N)=O)C(=O)N[C@H](C(=O)N[C@@H](Cc1ccc(O)cc1)C(N)=O)[C@@H](C)O)[C@@H](C)O)C(C)C` [N 6-20 Mers1] (Ac-APRAVTFGDNNDNNTY-NH2), on NTF2 domain of G3BP2, the affinity, expressed as Kd, was 26 µM and the Ki was determined as 26 µM. Also, on NTF2 domain of G3BP1, the Kd was determined as 51 ± 2 µM and affinity was put at a Ki of 51 µM.

On NTF2 domain of G3BP2, `CC[C@H](C)[C@H](NC(=O)[C@H](CCCNC(=N)N)NC(=O)[C@@H]1CCCN1C(=O)[C@H](C)NC(C)=O)C(=O)N[C@H](C(=O)N[C@@H](Cc1ccccc1)C(=O)NCC(=O)NCC(=O)N1CCC[C@H]1C(=O)N[C@@H](CO)C(=O)N[C@@H](CC(=O)O)C(=O)N[C@@H](CO)C(=O)N[C@H](C(=O)NCC(=O)N[C@@H](CO)C(=O)N[C@@H](Cc1ccc(O)cc1)C(N)=O)[C@@H](C)O)[C@@H](C)O` [N 12-26 Sars-CoV2] (Ac-APRITFGGPSDSTGSY-NH2) returned an IC50 of 10 µM. Besides, at NTF2 domain of G3BP1, the IC50 is 17 µM, binding was characterised by a dissociation constant (Kd) of 4 µM and the inhibition constant Ki came to 4 µM.

On NTF2 domain of G3BP1, `CC[C@H](C)[C@H](NC(=O)[C@H](CCCNC(=N)N)NC(=O)[C@@H]1CCCN1C(=O)[C@H](C)NC(C)=O)C(=O)N[C@H](C(=O)N[C@@H](Cc1ccccc1)C(=O)NCC(=O)NCC(=O)N1CCC[C@H]1C(=O)N[C@H](C(=O)N[C@@H](CC(=O)O)C(=O)N[C@@H](CO)C(=O)N[C@H](C(=O)N[C@@H](CC(=O)O)C(=O)N[C@@H](CC(N)=O)C(=O)N[C@@H](Cc1ccc(O)cc1)C(N)=O)[C@@H](C)O)[C@@H](C)O)[C@@H](C)O` [N 13-27 Sars-CoV] (Ac-APRITFGGPTDSTDNY-NH2) registered an IC50 of 10 µM.

As to `CC(=O)N[C@@H](CCC(N)=O)C(=O)NCC(=O)N[C@@H](CCCCN)C(=O)N1CCC[C@H]1C(=O)N[C@@H](CC(C)C)C(=O)N[C@@H](CCC(=O)O)C(=O)N[C@@H](Cc1ccccc1)C(=O)NCC(=O)N[C@@H](C)C(=O)N[C@H](C(=O)N[C@@H](CO)C(=O)N[C@@H](C)C(=O)N[C@@H](C)C(=O)N[C@@H](CC(C)C)C(=O)N[C@@H](CCC(N)=O)C(=O)N[C@@H](Cc1ccc(O)cc1)C(N)=O)[C@@H](C)O` [NSP3 956-971 Sars-CoV2], at NTF2 domain of G3BP2, binding was put at a Kd of 35 ± 13 µM and affinity was put at a Ki of 35 µM.

On to `CC(=O)N[C@@H](CCC(N)=O)C(=O)NCC(=O)N[C@@H](CC(C)C)C(=O)N1CCC[C@H]1C(=O)N[C@@H](CC(C)C)C(=O)N[C@@H](CCC(=O)O)C(=O)N[C@@H](Cc1ccccc1)C(=O)NCC(=O)N[C@@H](C)C(=O)N[C@@H](CO)C(=O)N[C@@H](C)C(=O)N[C@@H](CCC(=O)O)C(=O)N[C@H](C(=O)N[C@H](C(=O)N[C@@H](CCCNC(=N)N)C(=O)N[C@@H](Cc1ccc(O)cc1)C(N)=O)C(C)C)[C@@H](C)O` [NSP3 958-972 Sars-CoV], for which, on NTF2 domain of G3BP2, the Kd stood at 47 ± 2 µM and the Ki came to 47 µM. In addition, on NTF2 domain of G3BP1, binding was put at a Kd of 119 ± 5 µM and the Ki was determined as 119 µM.

Take `CC(=O)N[C@@H](CC(C)C)C(=O)N[C@H](C(=O)N[C@@H](Cc1ccccc1)C(=O)NCC(=O)N[C@@H](CC(=O)O)C(=O)N[C@@H](Cc1ccccc1)C(=O)N[C@@H](CC(=O)O)C(=O)N[C@@H](CCC(=O)O)C(=O)N[C@@H](Cc1c[nH]cn1)C(=O)N[C@@H](CCC(=O)O)C(=O)N[C@H](C(=O)N[C@@H](CC(=O)O)C(=O)N[C@@H](Cc1ccc(O)cc1)C(N)=O)C(C)C)[C@@H](C)O` [NSP3 1785-1796 SFV]: the results for the IC50 against NTF2 domain of G3BP2 and against NTF2 domain of G3BP1 were 13 µM and 23 µM, respectively.

Take `CC[C@H](C)[C@H](NC(=O)CNC(=O)[C@H](CO)NC(=O)[C@H](C)NC(=O)[C@H](CC(C)C)NC(=O)[C@H](C)NC(=O)[C@H](CC(=O)O)NC(=O)[C@@H](NC(=O)[C@H](CCC(=O)O)NC(=O)[C@H](Cc1c[nH]cn1)NC(=O)[C@H](CCC(=O)O)NC(=O)[C@H](CC(=O)O)NC(=O)[C@H](Cc1ccccc1)NC(=O)[C@H](CC(=O)O)NC(=O)CNC(=O)[C@H](Cc1ccccc1)NC(=O)[C@@H](NC(=O)[C@H](CC(C)C)NC(C)=O)[C@@H](C)O)C(C)C)C(=O)N[C@H](C(=O)N[C@@H](Cc1ccccc1)C(=O)NCC(=O)N[C@@H](CC(=O)O)C(=O)N[C@@H](Cc1ccccc1)C(=O)N[C@@H](CC(=O)O)C(=O)N[C@@H](CC(=O)O)C(=O)N[C@@H](Cc1ccc(O)cc1)C(N)=O)[C@@H](C)O` [NSP3 1785-1809 SFV]: on NTF2 domain of G3BP2, the inhibitory constant (Ki) is 0.15 µM. On NTF2 domain of G3BP1, the Kd was determined as 0.3 µM; the Ki amounted to 0.3 µM; the “binds stronger than the SARS-CoV-2 N peptide to both G3BP1 and G3BP2 (fold)” value is on record as “approximately 10 fold”.

The compound `CC[C@H](C)[C@H](NC(=O)CNC(=O)[C@H](CO)NC(=O)[C@H](C)NC(=O)[C@H](CC(C)C)NC(=O)[C@H](C)NC(=O)[C@H](CC(=O)O)NC(C)=O)C(=O)N[C@H](C(=O)N[C@@H](Cc1ccccc1)C(=O)NCC(=O)N[C@@H](CC(=O)O)C(=O)N[C@@H](Cc1ccccc1)C(=O)N[C@@H](CC(=O)O)C(=O)N[C@@H](CC(=O)O)C(=O)N[C@@H](Cc1ccc(O)cc1)C(N)=O)[C@@H](C)O` [NSP3 1796-1809 SFV] returned an IC50 at NTF2 domain of G3BP2 of 11 µM.

On NTF2 domain of G3BP2, `CC[C@H](C)[C@H](NC(=O)[C@@H]1CCCN1C(=O)[C@@H]1CCCN1C(=O)[C@@H](NC(=O)[C@@H]1CCCN1C(C)=O)C(C)C)C(=O)N[C@@H](CCC(=O)O)C(=O)N[C@@H](Cc1ccccc1)C(=O)NCC(=O)N[C@H](C(=O)N[C@@H](CO)C(=O)N1CCC[C@H]1C(=O)N[C@@H](CCCCN)C(=O)N[C@@H](CC(=O)O)C(=O)N[C@@H](CO)C(=O)N[C@@H](CC(=O)O)C(=O)N[C@@H](Cc1ccc(O)cc1)C(N)=O)C(C)C` [PRRC2B 1780-1794 Human] (Ac-PVPPIEFGVSPKDSDY-NH2) returned a half-inhibitory concentration (IC50) of 53 µM and a Kd of 10 µM. On NTF2 domain of G3BP1, this compound returned an IC50 of 33 µM and a Ki of 10 µM.
